Calls of active or inactive are those of the source. The calls are words filed in the database; no cut-off is given here.

Experimental findings from ChEMBL document CHEMBL4393727, “Investigating 1,2,3,4,5,6-hexahydroazepino[4,3-b]indole as scaffold of butyrylcholinesterase-selective inhibitors with additional neuroprotective activities for Alzheimer's disease” (Eur J Med Chem, 2019) are described below.

The target in data set [1] is Acetylcholinesterase (Electrophorus electricus, UniProt O42275). The experiment in a line: Inhibition of electric eel AChE using acetylthiocholine iodide as substrate preincubated for 20 mins followed by substrate addition and measured upto 5 mins by Ellman's method. For orientation: DTNB colorimetry detects thiols as they appear.
Chain of Acetylcholinesterase (Electrophorus electricus, UniProt O42275) (O42275 whole entry): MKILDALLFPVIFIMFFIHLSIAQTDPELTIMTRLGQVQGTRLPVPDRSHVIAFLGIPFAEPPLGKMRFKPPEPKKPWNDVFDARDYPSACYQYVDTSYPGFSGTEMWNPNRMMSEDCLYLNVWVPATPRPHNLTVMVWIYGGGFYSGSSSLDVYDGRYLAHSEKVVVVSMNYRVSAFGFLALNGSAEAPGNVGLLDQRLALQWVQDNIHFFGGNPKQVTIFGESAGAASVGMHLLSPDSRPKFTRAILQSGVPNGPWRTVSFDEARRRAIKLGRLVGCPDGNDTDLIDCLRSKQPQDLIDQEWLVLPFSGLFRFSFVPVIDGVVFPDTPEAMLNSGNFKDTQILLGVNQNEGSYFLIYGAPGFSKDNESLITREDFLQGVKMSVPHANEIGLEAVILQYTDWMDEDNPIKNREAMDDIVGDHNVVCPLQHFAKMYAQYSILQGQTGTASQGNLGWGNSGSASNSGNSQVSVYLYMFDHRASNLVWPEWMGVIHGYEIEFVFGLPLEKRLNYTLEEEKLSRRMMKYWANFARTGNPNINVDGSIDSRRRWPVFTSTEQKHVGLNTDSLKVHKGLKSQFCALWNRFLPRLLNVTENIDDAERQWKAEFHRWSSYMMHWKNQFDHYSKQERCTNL
The target of data set [2] is T1, Cholinesterase (Equus caballus, UniProt P81908). Nature of the data set: Inhibition of equine serum BChE using butyrylthiocholine as substrate preincubated for 20 mins followed by substrate addition and measured upto 5 mins by Ellman's method.
T1 sequence (P81908 whole entry): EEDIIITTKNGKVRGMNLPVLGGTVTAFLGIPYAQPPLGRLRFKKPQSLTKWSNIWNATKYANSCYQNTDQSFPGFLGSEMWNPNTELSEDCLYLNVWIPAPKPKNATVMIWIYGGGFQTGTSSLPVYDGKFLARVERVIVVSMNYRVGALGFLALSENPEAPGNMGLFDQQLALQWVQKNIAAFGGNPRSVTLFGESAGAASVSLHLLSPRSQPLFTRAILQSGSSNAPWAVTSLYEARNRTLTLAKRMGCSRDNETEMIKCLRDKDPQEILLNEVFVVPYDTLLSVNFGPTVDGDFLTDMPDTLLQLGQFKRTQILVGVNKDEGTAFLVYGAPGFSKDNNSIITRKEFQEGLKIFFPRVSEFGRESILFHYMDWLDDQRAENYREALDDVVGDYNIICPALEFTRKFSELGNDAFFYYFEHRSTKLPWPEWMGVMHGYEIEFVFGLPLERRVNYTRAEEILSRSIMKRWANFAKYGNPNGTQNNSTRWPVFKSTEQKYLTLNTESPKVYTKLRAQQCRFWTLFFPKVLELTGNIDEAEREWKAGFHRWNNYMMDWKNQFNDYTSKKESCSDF
For data set [3], the system named is SH-SY5Y. Nature of the data set: Neuroprotection activity against amyloid beta (1 to 42)-induced cytotoxicity in human SH-SY5Y cells assessed as recovery of viability at 5 uM by MTT assay. The settings on record: TDE = time-dependent effect. Format: functional, cell-based. For orientation: Tetrazolium dyes change colour on reduction, which living cells bring about.

Data set [4] deals with T1, Cholinesterase. Nature of the data set: Mixed type inhibition of equine serum BChE assessed as Ki using butyrylthiocholine as substrate preincubated for 20 mins followed by substrate addition and measured upto 5 mins by Ellman's method based Lineweaver-Burk plot analysis.
Data set [5] concerns SH-SY5Y. Nature of the data set: Neuroprotection activity against amyloid beta (1 to 42)-induced cytotoxicity in human SH-SY5Y cells assessed as recovery of viability at 5 uM measured after 48 hrs by MTT assay relative to control. Format: functional.
In data set [6] the target is Amyloid-beta precursor protein (Homo sapiens) (UniProt P05067). The experiment in a line: Inhibition of HFIP treated amyloid beta (1 to 40) (unknown origin) self-induced aggregation at 100 uM measured after 2 hrs by Thioflavin T fluorescence assay relative to control.
Chain of Amyloid-beta precursor protein (Homo sapiens) (P05067 whole entry): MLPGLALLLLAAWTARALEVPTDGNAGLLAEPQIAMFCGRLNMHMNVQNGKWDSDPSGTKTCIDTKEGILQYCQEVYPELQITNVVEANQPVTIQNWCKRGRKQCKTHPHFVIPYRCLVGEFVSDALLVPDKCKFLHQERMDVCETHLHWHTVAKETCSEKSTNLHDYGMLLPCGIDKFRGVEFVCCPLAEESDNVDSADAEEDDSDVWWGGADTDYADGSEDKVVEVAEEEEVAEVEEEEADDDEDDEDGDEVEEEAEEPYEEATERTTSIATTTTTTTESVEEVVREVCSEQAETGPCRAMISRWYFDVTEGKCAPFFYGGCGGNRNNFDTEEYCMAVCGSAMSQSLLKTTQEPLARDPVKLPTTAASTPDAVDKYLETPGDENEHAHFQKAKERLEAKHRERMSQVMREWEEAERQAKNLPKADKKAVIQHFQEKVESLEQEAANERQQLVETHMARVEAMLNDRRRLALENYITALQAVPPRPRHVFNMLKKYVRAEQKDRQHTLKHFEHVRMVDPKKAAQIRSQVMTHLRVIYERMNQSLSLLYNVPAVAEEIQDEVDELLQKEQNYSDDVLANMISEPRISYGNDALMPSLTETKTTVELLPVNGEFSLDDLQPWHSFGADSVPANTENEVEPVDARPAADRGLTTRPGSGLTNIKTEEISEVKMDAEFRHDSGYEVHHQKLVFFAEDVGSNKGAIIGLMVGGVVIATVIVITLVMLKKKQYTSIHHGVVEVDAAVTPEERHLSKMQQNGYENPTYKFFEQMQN
Data set [7] in a line: Selectivity index, ratio of IC50 for electric eel AChE to IC50 for human BuChE.
For data set [8], the target named is Cholinesterase (Homo sapiens, UniProt P06276). The experiment in a line: Inhibition of human BChE using butyrylthiocholine as substrate preincubated for 20 mins followed by substrate addition and measured upto 5 mins by Ellman's method.
Chain of Cholinesterase (Homo sapiens, UniProt P06276) (P06276 whole entry): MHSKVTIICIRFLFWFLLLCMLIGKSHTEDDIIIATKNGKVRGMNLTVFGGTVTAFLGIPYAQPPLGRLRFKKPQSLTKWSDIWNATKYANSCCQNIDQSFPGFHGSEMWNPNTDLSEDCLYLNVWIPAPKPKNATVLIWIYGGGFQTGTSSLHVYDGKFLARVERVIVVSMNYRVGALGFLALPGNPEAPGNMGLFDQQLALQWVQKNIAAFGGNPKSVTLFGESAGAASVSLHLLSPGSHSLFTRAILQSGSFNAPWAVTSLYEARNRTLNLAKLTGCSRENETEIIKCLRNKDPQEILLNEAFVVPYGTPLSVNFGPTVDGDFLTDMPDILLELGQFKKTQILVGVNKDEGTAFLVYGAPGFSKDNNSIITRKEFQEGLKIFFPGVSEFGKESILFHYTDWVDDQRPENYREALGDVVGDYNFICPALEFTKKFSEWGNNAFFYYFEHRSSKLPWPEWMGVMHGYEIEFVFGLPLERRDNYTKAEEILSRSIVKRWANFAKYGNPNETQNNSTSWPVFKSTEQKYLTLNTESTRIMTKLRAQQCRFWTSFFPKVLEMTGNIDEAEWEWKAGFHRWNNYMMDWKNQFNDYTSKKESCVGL
Data set [9] concerns SH-SY5Y. The experiment in a line: Neuroprotection activity against amyloid beta (1 to 42)-induced toxicity in human SH-SY5Y cells assessed as recovery of viability at 5 uM measured after 24 hrs by MTT assay relative to control. It is filed as functional.
Data set [10] is described as follows: Aqueous solubility of the compound in phosphate buffered saline at pH 7.4 by reverse phase HPLC analysis. It is filed as physicochemical.
Data set [11] is described as follows: Selectivity index, ratio of IC50 for electric eel AChE to IC50 for equine serum BuChE.
Data set [12] concerns SH-SY5Y. The experiment in a line: Neuroprotective activity against H2O2-induced oxidative stress in human SH-SY5Y cells assessed as reduction in ROS generation preincubated for 1 hr followed by DCFH-DA addition for 30 mins and subsequent co-treatment with compound and H2O2 for 30 min by fluorescence assay. It is filed as functional, cell-based.
In data set [13] the target is Acetylcholinesterase (Homo sapiens, UniProt P22303). Nature of the data set: Inhibition of human AChE using acetylthiocholine iodide as substrate preincubated for 20 mins followed by substrate addition and measured upto 5 mins by Ellman's method.
Chain of Acetylcholinesterase (Homo sapiens, UniProt P22303) (P22303 whole entry): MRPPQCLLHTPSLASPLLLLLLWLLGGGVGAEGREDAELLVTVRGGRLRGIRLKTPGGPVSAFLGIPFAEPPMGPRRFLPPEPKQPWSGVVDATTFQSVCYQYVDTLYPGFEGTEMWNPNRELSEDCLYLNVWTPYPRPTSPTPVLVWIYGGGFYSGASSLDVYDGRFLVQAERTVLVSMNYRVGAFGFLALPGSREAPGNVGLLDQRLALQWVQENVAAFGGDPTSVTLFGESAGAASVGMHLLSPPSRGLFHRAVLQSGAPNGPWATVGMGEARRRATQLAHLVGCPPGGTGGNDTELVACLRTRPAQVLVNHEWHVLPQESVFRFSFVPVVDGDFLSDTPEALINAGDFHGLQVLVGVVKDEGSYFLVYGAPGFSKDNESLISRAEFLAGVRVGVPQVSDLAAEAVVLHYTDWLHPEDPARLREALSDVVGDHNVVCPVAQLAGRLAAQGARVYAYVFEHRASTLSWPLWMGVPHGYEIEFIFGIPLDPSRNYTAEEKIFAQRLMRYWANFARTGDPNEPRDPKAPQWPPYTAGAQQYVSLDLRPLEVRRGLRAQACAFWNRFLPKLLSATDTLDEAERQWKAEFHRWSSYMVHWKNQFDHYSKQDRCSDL
Data set [14] deals with SH-SY5Y. Nature of the data set: Cytotoxicity in human SH-SY5Y cells assessed as decrease in cell viability at 5 uM measured after 48 hrs by MTT assay relative to control. It is filed as cell-based.
Data set [15] addresses Amyloid-beta precursor protein (Homo sapiens) (UniProt P05067). The experiment in a line: Inhibition of HFIP treated amyloid beta (1 to 40) (unknown origin) self-induced aggregation at 100 uM measured after 2 hrs by Thioflavin T fluorescence assay.
Data set [16] relates to SH-SY5Y. Nature of the data set: Neuroprotective activity against H2O2-induced oxidative stress in human SH-SY5Y cells assessed as reduction in ROS generation at 100 uM preincubated for 1 hr followed by DCFH-DA addition for 30 mins and subsequent co-treatment with compound and H2O2 for 30 min by fluorescence assay. Format: functional, cell-based.

By IC50 is commonly meant the point on the concentration scale where inhibition reaches its midpoint. For `Cc1ccc2[nH]c3c(c2c1)CN(C)CCC3`, the IC50 against Acetylcholinesterase [1] was 25 µM; on Cholinesterase [2], 7.1 µM.
The corresponding values for `Fc1ccc2[nH]c3c(c2c1)CN(Cc1ccc(CN2CCCC2)cc1)CCC3` are 7.9 µM and 4.3 µM.
Take `Fc1ccc2[nH]c3c(c2c1)CCCN(Cc1ccccc1)C3`: the IC50 against Acetylcholinesterase [1] worked out at 10.7 µM; on Cholinesterase [2] it was 3.4 µM.
Broadly, the Ki is the dissociation constant of the complex between target and ligand, obtained from inhibition or displacement. By inhibition is commonly meant the drop in the measured response relative to a control, in per cent. A word on the solubility: it is the dissolved amount per volume that the medium holds. Low values mean little dissolved substance, high ones much dissolved substance. For `Cl.c1ccc(CCCCN2CCCc3[nH]c4ccccc4c3C2)cc1`, the Activity entry is “Tde” with SH-SY5Y [3]; 30% in the data set on SH-SY5Y [5]; 35% in the data set with SH-SY5Y [9]; “Dose-dependent effect” in the data set with SH-SY5Y [12]; 30% in the data set with SH-SY5Y [14]. In addition, the inhibitory constant (Ki) on Cholinesterase [4] was 0.098 µM. In addition, the IC50 on Acetylcholinesterase [1] was 20 µM; at Cholinesterase [8], 0.199 µM; at Cholinesterase [2], 0.17 µM; with SH-SY5Y [12], 10.1 µM; at Acetylcholinesterase [13] it was 20 µM. Besides, in data set [6], the inhibition lay within 38 to 54%. Further, the Ratio IC50 in [7] and in [11] was greater than 100 in each case. Also, the solubility in [10] is greater than 1000 µM.
As to `CN1CCCc2[nH]c3ccccc3c2C1`, the IC50 was 7.1 µM against Acetylcholinesterase [1] and 25 µM at Cholinesterase [2].
With `Cl.c1ccc(CCN2CCCc3[nH]c4ccccc4c3C2)cc1`, the IC50 is 9 µM on Acetylcholinesterase [1] and 0.7 µM at Cholinesterase [2]. Besides, the inhibition in [6] fell in the range of 38 to 54%. The solubility in data set [10] was greater than 1000 µM. The Ratio IC50 in [11] lay in the range of 10 to 100.
Take `Fc1ccc2[nH]c3c(c2c1)CNCCC3`: the results for the IC50 on Acetylcholinesterase [1] and against Cholinesterase [2] were 16 µM and 4.3 µM, respectively.
Consider `Cl.c1ccc(CCCN2CCCc3[nH]c4ccccc4c3C2)cc1`, for which the IC50 at Acetylcholinesterase [1] came out at 20 µM; at Cholinesterase [2], 0.28 µM. In addition, the inhibition in [6] fell in the range of 38 to 54%. The molecule also gave a solubility in data set [10] greater than 1000 µM. The Ratio IC50 in data set [11] was 10 to 100.
For `c1ccc(CN2CCCc3[nH]c4ccccc4c3C2)cc1`, the IC50 was 8.7 µM at Acetylcholinesterase [1] and 2 µM against Cholinesterase [2]. The molecule further displayed an inhibition in [6] of 38 to 54%.
As to `Fc1ccc(CN2CCCc3[nH]c4ccc(F)cc4c3C2)cc1`, the 50% inhibitory concentration (IC50) against Acetylcholinesterase [1] is 4.1 µM; against Cholinesterase [2], 2.9 µM.
In the same order, the values of `O=C(c1ccccc1)N1CCCc2[nH]c3ccc(F)cc3c2C1` are 10.6 µM and 6 µM.
Regarding `Cc1ccc(CN2CCCc3[nH]c4ccccc4c3C2)cc1`, the values for the IC50 against Acetylcholinesterase [1] and at Cholinesterase [2] were 10 µM and 0.95 µM, respectively. In [11], the Ratio IC50 came to 10.
Consider `CCN(CC)Cc1ccc(CN2CCCc3[nH]c4ccc(F)cc4c3C2)cc1`, for which the values for the concentration for half-maximal inhibition (IC50) on Acetylcholinesterase [1] and against Cholinesterase [2] were 4.8 µM and 1.4 µM, respectively.
The corresponding values for `Fc1ccc2[nH]c3c(c2c1)CN(Cc1ccccc1)CCC3` are 4.96 µM and 2.13 µM.
Regarding `c1ccc2c3c([nH]c2c1)CCCNC3`, the IC50 against Acetylcholinesterase [1] came to 70 µM; against Cholinesterase [2], 20 µM.
With `O=c1c(O)c(-c2ccc(O)c(O)c2)oc2cc(O)cc(O)c12`, the inhibition entry in data set [15] is “Active”. Moreover, the result in the data set with SH-SY5Y [16] was Active.
Consider `Cn1c2c(c3ccccc31)CN(CCc1ccccc1)CCC2`, for which the IC50 on Acetylcholinesterase [1] stood at 12 µM; against Cholinesterase [2] it was 0.86 µM. Besides, in data set [6], the inhibition lay within 38 to 54%. In data set [11], the Ratio IC50 is 10 to 100.
As for `Cc1ccc2[nH]c3c(c2c1)CNCCC3`, the IC50 against Acetylcholinesterase [1] is 45 µM; against Cholinesterase [2], 8 µM.
Turning to `Fc1ccc(CN2CCCc3[nH]c4ccccc4c3C2)cc1`, the IC50 against Acetylcholinesterase [1] turned out to be 12 µM; against Cholinesterase [2], 1.2 µM. Moreover, the Ratio IC50 in [11] worked out at 10.
As to `Cc1ccc2[nH]c3c(c2c1)CN(Cc1ccccc1)CCC3`, the IC50 came to 6.95 µM at Acetylcholinesterase [1] and 1.2 µM against Cholinesterase [2].
